Source: US20190315711A1 (eXIthera Pharmaceuticals, Inc., priority 2016, published 2019)
Converted amounts (≈) assume the structure as drawn.

Experiments:
[1] = Caco-2 cell permeability assay (A-B and B-A); format: in vitro ADME; settings: human; for Papp A→B at 60 min, 10 μM: A-B direction; for Papp B→A at 40 min, 10 μM: B-A direction
In short: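 Caco-2 monolayers were used 21-25 days post-seeding, with compound at 10 μM (1% DMSO) in HBSS-MES pH 6.5 or HBSS-HEPES pH 7.4 on the donor side. Incubation was at 37° C with shaking for 60 min (A−B) or 40 min (B−A). Donor and receiver samples were quantified by HPLC-MS/MS, and Papp and recovery were calculated.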

[2] = target: T1, Trypsin (Bos taurus, UniProt P00760); experiment: Dose response assay for protease inhibitors: trypsin; format: biochemical; settings: ratio versus Factor XIa
T1 construct: gene PRSS1
T1 sequence (P00760 24-246): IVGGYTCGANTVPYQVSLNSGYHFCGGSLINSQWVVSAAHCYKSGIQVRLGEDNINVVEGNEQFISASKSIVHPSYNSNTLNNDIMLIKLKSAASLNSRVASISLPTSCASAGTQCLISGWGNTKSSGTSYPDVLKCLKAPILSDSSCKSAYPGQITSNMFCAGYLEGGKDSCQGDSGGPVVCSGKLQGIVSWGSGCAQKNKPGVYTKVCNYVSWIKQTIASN

[3] = target: T2, Factor Xa (Homo sapiens, UniProt P00742); experiment: Dose response assay for protease inhibitors: Factor Xa; format: biochemical; settings: ratio versus Factor XIa
T2 construct: Factor Xa; 0.2 μM in 50% glycerol (9.2 μg/mL)
T2 sequence (P00742 235-488 limits assumed): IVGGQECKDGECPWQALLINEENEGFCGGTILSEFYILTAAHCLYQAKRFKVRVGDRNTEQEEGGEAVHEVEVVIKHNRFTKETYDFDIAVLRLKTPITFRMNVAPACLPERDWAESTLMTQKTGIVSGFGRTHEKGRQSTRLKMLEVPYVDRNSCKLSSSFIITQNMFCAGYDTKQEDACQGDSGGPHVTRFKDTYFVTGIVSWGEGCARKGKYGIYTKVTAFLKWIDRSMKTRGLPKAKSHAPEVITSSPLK
T2 sequence (P00742 41-179 partner limits assumed): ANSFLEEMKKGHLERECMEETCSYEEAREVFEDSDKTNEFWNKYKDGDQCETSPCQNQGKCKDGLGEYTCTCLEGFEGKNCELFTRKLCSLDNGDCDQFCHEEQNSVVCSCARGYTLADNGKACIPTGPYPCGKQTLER

[4] = Aqueous solubility in PBS pH 7.4; format: physicochemical; settings: phosphate buffered saline, aqueous buffer, kinetic from dmso stock, PBS pH 7.4, room temperature
Method: The following procedure was used to determine the aqueous solubility of a test compound in phosphate buffered saline (PBS—NaCl 137 mM, KCl 2.7 mM, Na2HPO4 8.1 mM, KH2PO4 1.5 mM, pH 7.4) in 96-well plate format by HPLC-UV/VIS analysis. The test compound was prepared at 200 μM in PBS from a 10 mM DMSO stock solution. The final DMSO concentration was 2%. The PBS buffer samples were mixed thoroughly followed by incubation at room temperature for 24 h. At the end of the incubation, the PBS buffer samples were centrifuged and supernatants analyzed by HPLC. The aqueous solubility (μM) of the test compound in PBS was determined by comparing the peak area of the principal peak in the calibration standard (200 μM) with the peak area of the corresponding peak in each of the PBS samples. The range of the assay was approximately 0.5 μM to 200 μM. The reference compounds used in each assay were metoprolol, rifampicin, ketoconazole, phenytoin, haloperidol, simvastatin, diethylstilbestrol, and tamoxifen ranking from fully soluble (200 μM) to poorly soluble (<1 μM).

Row | SMILES | Papp A→B at 60 min, 10 μM [1] [×10⁻⁶ cm/s] | Papp B→A at 40 min, 10 μM [1] [×10⁻⁶ cm/s] | Ratio: Trypsin/FXIa [2] | FXa/FXIa (selectivity ratio) [3] | solubility at 24 h [4] [µM]
1 | CN(C(=O)[C@@H]1[C@@H](Cc2ccnc(N)c2)C(=O)N1C(=O)N[C@@H](C1CCCCC1)C(F)(F)F)c1ccncc1 [Compound 18] | 11 to 30 | 11 to 30 | G (“G” indicates 1-100) | I (“I” indicates >500) | > 100
2 | CC[C@@H](NC(=O)N1C(=O)[C@H](Cc2ccnc(N)c2)[C@H]1C(=O)N(C)c1ccncc1)c1ccccc1 [Compound 42] | ≤ 10 | 31 to 50 | G (“G” indicates 1-100) | I (“I” indicates >500) | > 100
3 | CC[C@@H](NC(=O)N1C(=O)[C@H](Cc2ccnc(N)c2)[C@H]1C(=O)N(C)c1ccncc1)c1cccc(C#N)c1 [Compound 99] | ≤ 10 | 11 to 30 | G (“G” indicates 1-100) | I (“I” indicates >500) | > 100
4 | CN(C(=O)[C@@H]1[C@@H](Cc2ccnc(N)c2)C(=O)N1C(=O)N[C@@H](C1CCCCC1)C(F)(F)F)c1cncnc1 [Compound 19] | 11 to 30 | 31 to 50 | G (“G” indicates 1-100) | H (“H” indicates 101-1000) | > 100
5 | CC[C@@H](NC(=O)N1C(=O)[C@H](Cc2ccnc(N)c2)[C@H]1C(=O)N(C)c1ncccn1)c1ccccc1 [Compound 84] | ≤ 10 | 31 to 50 | G (“G” indicates 1-100) | I (“I” indicates >500) | > 100
6 | CC[C@@H](NC(=O)N1C(=O)[C@H](Cc2ccnc(N)c2)[C@H]1C(=O)N(C)c1ncncn1)c1ccccc1 [Compound 83] | ≤ 10 | > 50 | H (“H” indicates 101-1000) | I (“I” indicates >500) | > 100
7 | CC[C@@H](NC(=O)N1C(=O)[C@H](Cc2ccnc(N)c2)[C@H]1C(=O)N(C)c1ccccc1)c1cccnc1 [Compound 44] | ≤ 10 | 31 to 50 | G (“G” indicates 1-100) | I (“I” indicates >500) | > 100
8 | C[C@@H](NC(=O)N1C(=O)[C@H](Cc2ccnc(N)c2)[C@H]1C(=O)N(C)c1ccccc1)C1CCCCC1 [Compound 49] | > 50 | 11 to 30 | G (“G” indicates 1-100) | I (“I” indicates >500) | > 100
9 | CC[C@@H](NC(=O)N1C(=O)[C@H](Cc2ccnc(NC(=O)OC(C)(C)C)c2)[C@H]1C(=O)N(C)c1ccncc1)c1cccc(Cl)c1 [Compound 127] | 11 to 30 | ≤ 10 | H (“H” indicates 101-1000) | H (“H” indicates 101-1000) | 10 to 100 (≈ 6.07 to 60.7 µg/mL)
10 | CC[C@@H](NC(=O)N1C(=O)[C@H](Cc2ccnc(N)c2)[C@H]1C(=O)N(C)c1ccncc1)C1CCCCC1 [Compound 25] | ≤ 10 | 31 to 50 | G (“G” indicates 1-100) | I (“I” indicates >500) | > 100
11 | Cc1ccccc1N(C)C(=O)[C@@H]1[C@@H](Cc2ccnc(N)c2)C(=O)N1C(=O)N[C@@H](C1CCCCC1)C(F)(F)F [Compound 15] | 11 to 30 | ≤ 10 | G (“G” indicates 1-100) | H (“H” indicates 101-1000) | 10 to 100 (≈ 5.32 to 53.2 µg/mL)
12 | CC[C@@H](NC(=O)N1C(=O)[C@H](Cc2ccnc(N)c2)[C@H]1C(=O)N(C)c1ncncn1)C1CCCCC1 [Compound 81] | 11 to 30 | 11 to 30 | H (“H” indicates 101-1000) | I (“I” indicates >500) | > 100
13 | CC[C@@H](NC(=O)N1C(=O)[C@H](Cc2ccnc(N)c2)[C@H]1C(=O)N(C)c1ccncc1)c1ccc(Cl)cc1 [Compound 89] | ≤ 10 | 31 to 50 | G (“G” indicates 1-100) | H (“H” indicates 101-1000) | > 100
